Consider 16 compounds from patent US20100249145A1, “Inhibitors of VEGF Receptor and HGF Receptor Signaling” (Methylgene, Inc., priority 2005, published 2010).

Molecules are shown by their SMILES. Where only a bound is given, the exact number is not on record here.

T1 sequence (P35968 806-1356): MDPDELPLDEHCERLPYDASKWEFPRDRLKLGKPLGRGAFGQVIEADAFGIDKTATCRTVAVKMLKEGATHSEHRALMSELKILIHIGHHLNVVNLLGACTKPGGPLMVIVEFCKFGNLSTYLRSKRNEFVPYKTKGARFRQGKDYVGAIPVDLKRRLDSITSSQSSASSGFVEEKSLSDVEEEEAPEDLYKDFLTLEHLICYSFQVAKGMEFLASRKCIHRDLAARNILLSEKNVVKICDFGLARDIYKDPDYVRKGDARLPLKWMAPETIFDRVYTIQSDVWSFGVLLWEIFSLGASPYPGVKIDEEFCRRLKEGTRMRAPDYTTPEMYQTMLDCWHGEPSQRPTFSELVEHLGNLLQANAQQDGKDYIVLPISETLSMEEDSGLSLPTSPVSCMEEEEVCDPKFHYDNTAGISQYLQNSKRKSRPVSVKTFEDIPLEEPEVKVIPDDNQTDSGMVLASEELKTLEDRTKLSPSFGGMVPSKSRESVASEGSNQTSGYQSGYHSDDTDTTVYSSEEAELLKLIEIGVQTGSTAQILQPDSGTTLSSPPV
T2 sequence (P08581 1078-1337): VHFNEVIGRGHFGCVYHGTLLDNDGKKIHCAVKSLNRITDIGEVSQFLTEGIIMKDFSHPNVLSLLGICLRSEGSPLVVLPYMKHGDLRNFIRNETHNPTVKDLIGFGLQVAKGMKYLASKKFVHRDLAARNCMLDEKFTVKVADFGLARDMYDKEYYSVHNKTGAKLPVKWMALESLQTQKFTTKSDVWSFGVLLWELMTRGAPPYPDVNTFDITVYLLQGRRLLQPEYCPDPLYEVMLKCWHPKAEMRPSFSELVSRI

The test system of the first assay is A549. In words: A549 wound healing inhibition (HGF dependent migration). In kind it is cell-based. The conditions noted are these: Homo sapiens, Table 31, read-out: A549 wound healing inbib IC50. From the text:
(§1) HGF has well known activity in terms of inducing scattering and migration (wound healing) (Wells et al., Cell Motil Cytoskeleton. 2005 November 62(3):180-94; Miura et al., Urology 2001 December 58(6):1064-9; Nishimura et al., Int J. Urol. 1998 May 5(3):276-81; Wang et al., Mol Cancer Ther. 2003 November; 2(11):1085-92; and Christensen et al., Cancer Res. 2003 Nov. 1; 63(21):7345-55).
Consider `CO/N=C(\C)c1cc2nccc(Oc3ccc(NC(=S)NC(=O)Cc4ccccc4)cc3F)c2s1`, for which the IC50 (usually the concentration that gives 50% inhibition) was in the range of 1000 to 5000 nM.

For `CC(C(=O)NC(=S)Nc1ccc(Oc2ccnc3cc(-c4nccn4C)sc23)c(F)c1)c1ccccc1` (stereo not shown), the IC50 is less than 1000 nM.

For `CN(c1ccc(NC(=S)NC(=O)Cc2ccccc2)cc1F)c1ccnc2ccsc12`, the IC50 was 5000 to 10000 nM.

Turning to `CN(c1ccc(NC(=S)NC(=O)Cc2ccccc2)cc1F)c1ccnc2cc(-c3nccn3C)sc12`, the half-maximal inhibitory concentration (IC50) is less than 1000 nM.

For `O=C(Cc1ccccc1)NC(=S)Nc1ccc(Nc2ccnc3ccsc23)c(F)c1`, the IC50 is less than 1000 nM.

With `Cn1cnc(-c2cc3nccc(Nc4ccc(NC(=S)NC(=O)Cc5ccccc5)cc4F)c3s2)c1`, the IC50 is less than 1000 nM.

For the compound `O=C(Cc1ccc(F)cc1)NC(=S)Nc1ccc(Oc2ccnc3cc(-c4cc[n+]([O-])cc4)sc23)c(F)c1`, the IC50 is less than 1000 nM.

In the case of `C#Cc1cc(F)ccc1CC(=O)NC(=S)Nc1ccc(Oc2ccnc3cc(-c4cccc[n+]4[O-])sc23)c(F)c1`, the half-inhibitory concentration (IC50) was less than 1000 nM.

As to `C=C(F)c1ccccc1CC(=O)NC(=S)Nc1ccc(Oc2ccnc3cc(-c4cn(C)cn4)sc23)c(F)c1`, the half-inhibitory concentration (IC50) was less than 1000 nM.

For `C=C(F)c1cccc(CC(=O)NC(=S)Nc2ccc(Oc3ccnc4cc(-c5cn(C)cn5)sc34)c(F)c2)c1`, the IC50 lay within 1000 to 5000 nM.

As for `CC(=O)N1CC=C(c2cc3nccc(Oc4ccc(NC(=S)NC(=O)Cc5ccc(F)cc5)cc4F)c3s2)CC1`, the 50% inhibitory concentration (IC50) is less than 1000 nM.

Take `CCN(CCOC)Cc1ccc(-c2cc3nccc(Oc4ccc(NC(=S)NC(=O)Cc5ccc(F)cc5)cc4F)c3s2)cc1`: the half-inhibitory concentration (IC50) was less than 1000 nM.

As to `CS(=O)(=O)c1ccc(-c2cc3nccc(Oc4ccc(NC(=S)NC(=O)Cc5ccc(F)cc5)cc4F)c3s2)cc1`, the IC50 is less than 1000 nM.

Take `CN(C)C(=O)c1ccc(-c2cc3nccc(Oc4ccc(NC(=S)NC(=O)Cc5ccc(F)cc5)cc4F)c3s2)cc1`: the IC50 is less than 1000 nM.

For `COCCNCc1cccc(-c2cc3nccc(Oc4ccc(NC(=S)NC(=O)Cc5ccc(F)cc5)cc4F)c3s2)n1`, the IC50 was less than 1000 nM.

Turning to `COCCNCc1ccc(-c2cc3nccc(Oc4ccc(NC(=O)NC(=O)Cc5ccc(F)cc5)cc4F)c3s2)cc1`, the IC50 is less than 1000 nM.

A further assay has as its system DU145. The assay can be described thus: DU145 scattering inhibition (HGF dependent scattering). The class given is cell-based. The conditions noted are these: Homo sapiens, DU-145, Table 31, read-out: DU145 scattering inhib IC50.
Excerpt: as §1
Take `CO/N=C(\C)c1cc2nccc(Oc3ccc(NC(=S)NC(=O)Cc4ccccc4)cc3F)c2s1`: the IC50 lay within 1000 to 5000 nM.

With `CC(C(=O)NC(=S)Nc1ccc(Oc2ccnc3cc(-c4nccn4C)sc23)c(F)c1)c1ccccc1` (stereo not shown), the IC50 was less than 1000 nM.

As to `CN(c1ccc(NC(=S)NC(=O)Cc2ccccc2)cc1F)c1ccnc2ccsc12`, the 50% inhibitory concentration (IC50) fell in the range of 5000 to 10000 nM.

In the case of `CN(c1ccc(NC(=S)NC(=O)Cc2ccccc2)cc1F)c1ccnc2cc(-c3nccn3C)sc12`, the IC50 was less than 1000 nM.

Turning to `O=C(Cc1ccccc1)NC(=S)Nc1ccc(Nc2ccnc3ccsc23)c(F)c1`, the concentration for half-maximal inhibition (IC50) lay within 1000 to 5000 nM.

In the case of `Cn1cnc(-c2cc3nccc(Nc4ccc(NC(=S)NC(=O)Cc5ccccc5)cc4F)c3s2)c1`, the concentration for half-maximal inhibition (IC50) is less than 1000 nM.

Turning to `O=C(Cc1ccc(F)cc1)NC(=S)Nc1ccc(Oc2ccnc3cc(-c4cc[n+]([O-])cc4)sc23)c(F)c1`, the IC50 was less than 1000 nM.

Turning to `C#Cc1cc(F)ccc1CC(=O)NC(=S)Nc1ccc(Oc2ccnc3cc(-c4cccc[n+]4[O-])sc23)c(F)c1`, the IC50 is less than 1000 nM.

Turning to `C=C(F)c1ccccc1CC(=O)NC(=S)Nc1ccc(Oc2ccnc3cc(-c4cn(C)cn4)sc23)c(F)c1`, the IC50 is less than 1000 nM.

With `C=C(F)c1cccc(CC(=O)NC(=S)Nc2ccc(Oc3ccnc4cc(-c5cn(C)cn5)sc34)c(F)c2)c1`, the 50% inhibitory concentration (IC50) is 1000 to 5000 nM.

As to `CC(=O)N1CC=C(c2cc3nccc(Oc4ccc(NC(=S)NC(=O)Cc5ccc(F)cc5)cc4F)c3s2)CC1`, the half-maximal inhibitory concentration (IC50) was less than 1000 nM.

Consider `CCN(CCOC)Cc1ccc(-c2cc3nccc(Oc4ccc(NC(=S)NC(=O)Cc5ccc(F)cc5)cc4F)c3s2)cc1`, for which the half-maximal inhibitory concentration (IC50) was less than 1000 nM.

As for `CS(=O)(=O)c1ccc(-c2cc3nccc(Oc4ccc(NC(=S)NC(=O)Cc5ccc(F)cc5)cc4F)c3s2)cc1`, the IC50 is less than 1000 nM.

As to `CN(C)C(=O)c1ccc(-c2cc3nccc(Oc4ccc(NC(=S)NC(=O)Cc5ccc(F)cc5)cc4F)c3s2)cc1`, the concentration for half-maximal inhibition (IC50) is less than 1000 nM.

`COCCNCc1cccc(-c2cc3nccc(Oc4ccc(NC(=S)NC(=O)Cc5ccc(F)cc5)cc4F)c3s2)n1`: the IC50 is less than 1000 nM.

Regarding `COCCNCc1ccc(-c2cc3nccc(Oc4ccc(NC(=O)NC(=O)Cc5ccc(F)cc5)cc4F)c3s2)cc1`, the IC50 was less than 1000 nM.

Another assay has as its target T1, VEGF receptor KDR (Homo sapiens, UniProt P35968).
T1 construct: made in house; host or cells: Sf9 cells (Spodoptera frugiperda), recombinant baculovirus
In words: In vitro receptor tyrosine kinase assay (DELFIA), VEGF receptor KDR. In kind it is biochemical. The conditions noted are these: Table 31; ATP 0.6 uM, enzyme 5 nM; read-out: VEGFR IC50. From the text:
In Vitro Receptor Tyrosine Kinase Assays (c-Met/HGF receptor and VEGF Receptor KDR)
In the case of VEGF receptor KDR a 1.6-kb cDNA corresponding to the catalytic domain of VEGFR2 or KDR (Genbank accession number AF035121 amino acid 806 to 1356) was cloned into the Pst I site of the pDEST20 Gateway vector (Invitrogen) for the production of a GST-tagged version of that enzyme.
The GST-VEGFR2806-1356 protein was expressed in Sf9 cells (Spodoptera frugiperda) upon infection with recombinant baculovirus construct.
The supernatant was loaded onto a GST-agarose column (Sigma) equilibrated with PBS pH 7.3. Following a four column volume (CV) wash with PBS pH 7.3+1% Triton X-100 and 4 CV wash with buffer B (50 mM Tris pH 8.0, 20% glycerol and 100 mM NaCl), bound proteins were step eluted with 5 CV of buffer B supplemented with 5 mM DTT and 15 mM glutathion. […] Final GST-VEGFR2806-1356 protein preparations concentrations were about 0.7 mg/ml with purity approximating 70%.
For the compound `CO/N=C(\C)c1cc2nccc(Oc3ccc(NC(=S)NC(=O)Cc4ccccc4)cc3F)c2s1`, the half-inhibitory concentration (IC50) lay within 50 to 250 nM.

Regarding `CC(C(=O)NC(=S)Nc1ccc(Oc2ccnc3cc(-c4nccn4C)sc23)c(F)c1)c1ccccc1` (stereo not shown), the IC50 lay in the range of 50 to 250 nM.

For `CN(c1ccc(NC(=S)NC(=O)Cc2ccccc2)cc1F)c1ccnc2ccsc12`, the IC50 was more than 500 nM.

For the compound `CN(c1ccc(NC(=S)NC(=O)Cc2ccccc2)cc1F)c1ccnc2cc(-c3nccn3C)sc12`, the half-inhibitory concentration (IC50) was more than 500 nM.

On to `O=C(Cc1ccccc1)NC(=S)Nc1ccc(Nc2ccnc3ccsc23)c(F)c1`, for which the IC50 was more than 500 nM.

As to `Cn1cnc(-c2cc3nccc(Nc4ccc(NC(=S)NC(=O)Cc5ccccc5)cc4F)c3s2)c1`, the IC50 was more than 500 nM.

`O=C(Cc1ccc(F)cc1)NC(=S)Nc1ccc(Oc2ccnc3cc(-c4cc[n+]([O-])cc4)sc23)c(F)c1`: the IC50 was 50 to 250 nM.

In the case of `C#Cc1cc(F)ccc1CC(=O)NC(=S)Nc1ccc(Oc2ccnc3cc(-c4cccc[n+]4[O-])sc23)c(F)c1`, the IC50 is less than 50 nM.

Regarding `C=C(F)c1ccccc1CC(=O)NC(=S)Nc1ccc(Oc2ccnc3cc(-c4cn(C)cn4)sc23)c(F)c1`, the 50% inhibitory concentration (IC50) is less than 50 nM.

With `C=C(F)c1cccc(CC(=O)NC(=S)Nc2ccc(Oc3ccnc4cc(-c5cn(C)cn5)sc34)c(F)c2)c1`, the 50% inhibitory concentration (IC50) fell in the range of 50 to 250 nM.

With `CC(=O)N1CC=C(c2cc3nccc(Oc4ccc(NC(=S)NC(=O)Cc5ccc(F)cc5)cc4F)c3s2)CC1`, the IC50 was less than 50 nM.

`CCN(CCOC)Cc1ccc(-c2cc3nccc(Oc4ccc(NC(=S)NC(=O)Cc5ccc(F)cc5)cc4F)c3s2)cc1`: the IC50 is less than 50 nM.

In the case of `CS(=O)(=O)c1ccc(-c2cc3nccc(Oc4ccc(NC(=S)NC(=O)Cc5ccc(F)cc5)cc4F)c3s2)cc1`, the concentration for half-maximal inhibition (IC50) lay in the range of 50 to 250 nM.

`CN(C)C(=O)c1ccc(-c2cc3nccc(Oc4ccc(NC(=S)NC(=O)Cc5ccc(F)cc5)cc4F)c3s2)cc1`: the IC50 is less than 50 nM.

For `COCCNCc1cccc(-c2cc3nccc(Oc4ccc(NC(=S)NC(=O)Cc5ccc(F)cc5)cc4F)c3s2)n1`, the 50% inhibitory concentration (IC50) was 250 to 500 nM.

Consider `COCCNCc1ccc(-c2cc3nccc(Oc4ccc(NC(=O)NC(=O)Cc5ccc(F)cc5)cc4F)c3s2)cc1`, for which the half-inhibitory concentration (IC50) lay within 50 to 250 nM.

The next assay concerns the target T2, recombinant human c-Met/HGF receptor (Homo sapiens, UniProt P08581).
T2 construct: His tag (histidine tag from pBlueBacHis2A); made in house; host or cells: Hi-5 cells (Trichoplusia ni), recombinant baculovirus
In words: In vitro receptor tyrosine kinase assay (DELFIA), c-Met/HGF receptor. In kind it is biochemical. The conditions noted are these: Table 31; ATP 10 uM, enzyme 25 nM; read-out: CMet ic50.
Regarding `CO/N=C(\C)c1cc2nccc(Oc3ccc(NC(=S)NC(=O)Cc4ccccc4)cc3F)c2s1`, the IC50 is less than 50 nM.

With `CC(C(=O)NC(=S)Nc1ccc(Oc2ccnc3cc(-c4nccn4C)sc23)c(F)c1)c1ccccc1` (stereo not shown), the IC50 fell in the range of 50 to 250 nM.

For `CN(c1ccc(NC(=S)NC(=O)Cc2ccccc2)cc1F)c1ccnc2ccsc12`, the 50% inhibitory concentration (IC50) fell in the range of 250 to 500 nM.

For `CN(c1ccc(NC(=S)NC(=O)Cc2ccccc2)cc1F)c1ccnc2cc(-c3nccn3C)sc12`, the 50% inhibitory concentration (IC50) is less than 50 nM.

With `O=C(Cc1ccccc1)NC(=S)Nc1ccc(Nc2ccnc3ccsc23)c(F)c1`, the IC50 lay in the range of 50 to 250 nM.

Turning to `Cn1cnc(-c2cc3nccc(Nc4ccc(NC(=S)NC(=O)Cc5ccccc5)cc4F)c3s2)c1`, the IC50 was less than 50 nM.

`O=C(Cc1ccc(F)cc1)NC(=S)Nc1ccc(Oc2ccnc3cc(-c4cc[n+]([O-])cc4)sc23)c(F)c1`: the IC50 was less than 50 nM.

In the case of `C#Cc1cc(F)ccc1CC(=O)NC(=S)Nc1ccc(Oc2ccnc3cc(-c4cccc[n+]4[O-])sc23)c(F)c1`, the IC50 is less than 50 nM.

As to `C=C(F)c1ccccc1CC(=O)NC(=S)Nc1ccc(Oc2ccnc3cc(-c4cn(C)cn4)sc23)c(F)c1`, the IC50 was less than 50 nM.

On to `C=C(F)c1cccc(CC(=O)NC(=S)Nc2ccc(Oc3ccnc4cc(-c5cn(C)cn5)sc34)c(F)c2)c1`, for which the IC50 fell in the range of 50 to 250 nM.

Consider `CC(=O)N1CC=C(c2cc3nccc(Oc4ccc(NC(=S)NC(=O)Cc5ccc(F)cc5)cc4F)c3s2)CC1`, for which the concentration for half-maximal inhibition (IC50) is less than 50 nM.

Take `CCN(CCOC)Cc1ccc(-c2cc3nccc(Oc4ccc(NC(=S)NC(=O)Cc5ccc(F)cc5)cc4F)c3s2)cc1`: the IC50 is less than 50 nM.

Consider `CS(=O)(=O)c1ccc(-c2cc3nccc(Oc4ccc(NC(=S)NC(=O)Cc5ccc(F)cc5)cc4F)c3s2)cc1`, for which the IC50 was less than 50 nM.

Consider `CN(C)C(=O)c1ccc(-c2cc3nccc(Oc4ccc(NC(=S)NC(=O)Cc5ccc(F)cc5)cc4F)c3s2)cc1`, for which the IC50 is less than 50 nM.

Take `COCCNCc1cccc(-c2cc3nccc(Oc4ccc(NC(=S)NC(=O)Cc5ccc(F)cc5)cc4F)c3s2)n1`: the IC50 is less than 50 nM.

For `COCCNCc1ccc(-c2cc3nccc(Oc4ccc(NC(=O)NC(=O)Cc5ccc(F)cc5)cc4F)c3s2)cc1`, the 50% inhibitory concentration (IC50) is less than 50 nM.
